Experimental data published in patent publication US20120220658A1, “Method for Treating Sepsis or Septic Shock” (University of Medicine and Dentistry of New Jersey, priority 2009, published 2012).
Entries after “also recorded” stand apart in the source; their conditions may differ.

What was measured:
CLP rats [1] = test: Survival in cecal ligation and perforation (CLP) model of sepsis, LXA4 i.p.; format: in vivo, male Sprague-Dawley rats; conditions: 40 μg/kg i.p. five hours after CLP surgery; subgroup of rats that lived longer than 48 hours; vs vehicle treated CLP rats
Protocol: (§1) Surgery. Cecal ligation and perforation (CLP) was performed on male Sprague-Dawley rats (250-350 g) according to known methods (Chaudry, et al. (1979) Surgery 85:205-21). The CLP model of sepsis is an established, clinically relevant model of sepsis (Rittirsch et al., (2009) Nature Protocol 4(1):31-36). Animals were fasted overnight before surgery. On the day of surgery, rats were anesthetized with Isofluorane (+oxygen). A 2-cm-long midline incision was made in the abdomen to expose the cecum. Fecal matter was massaged into the cecum. The distal two-thirds of the cecum was ligated with 4.0 surgical silk. Using an 18-gauge needle, the cecum was punctured twice. Some fecal matter was massaged out of the cecum through these holes. The cecum was placed back into the abdomen, which was then closed. Saline (2 ml/100 g; s.c.) was injected to replace any fluids lost during surgery. Five hours after surgery, the rats were given either LXA4 (40 μg/kg rat; i.p.) or saline vehicle. […]
In this study, the effect of LXA4 in the clinically relevant cecal ligation and puncture (CLP) model of sepsis was analyzed. […]
Survival. […] As there was a significant change in the slope of the individual survival curves starting at 48 hours, the effects of LXA4 on systemic inflammatory mediator release, bacterial load and peritoneal leukocyte counts 48 hours after CLP sepsis were analyzed.

[2] = system: bacterial load in CLP rats; test: Bacterial load (CFU) in blood and peritoneal lavage fluid after CLP; format: in vivo, male Sprague-Dawley rats; conditions: 40 μg/kg i.p. 5 h after CLP; 48 hours after CLP; vs saline vehicle
Protocol: as §1, with “vehicle. This concentration of LXA4 was derived from published in vivo work in rodents (Bannenberg et al., (2004) Br. J. Pharmacol. 143:43-52).” for “vehicle.”
Bacterial Load. […] At the end of the incubation period, colony forming units (CFU) were counted.
Bacterial Load. Bacterial load in blood and peritoneal lavage fluid was measured after plating of serially diluted samples on tryptic soy agar plates. […]

[3] = system: peritoneal leukocytes of CLP rats; test: Peritoneal cell count and differential after CLP; format: in vivo, male Sprague-Dawley rats; conditions: 40 μg/kg i.p. 5 h after CLP; 48 hours after CLP; vs CLP rats given saline
Protocol: (§2) Surgery. Cecal ligation and perforation (CLP) was performed on male Sprague-Dawley rats (250-350 g) according to known methods (Chaudry, et al. (1979) Surgery 85:205-21). The CLP model of sepsis is an established, clinically relevant model of sepsis (Rittirsch et al., (2009) Nature Protocol 4(1):31-36). Animals were fasted overnight before surgery. On the day of surgery, rats were anesthetized with Isofluorane (+oxygen). A 2-cm-long midline incision was made in the abdomen to expose the cecum. Fecal matter was massaged into the cecum. The distal two-thirds of the cecum was ligated with 4.0 surgical silk. Using an 18-gauge needle, the cecum was punctured twice. Some fecal matter was massaged out of the cecum through these holes. The cecum was placed back into the abdomen, which was then closed. Saline (2 ml/100 g; s.c.) was injected to replace any fluids lost during surgery. Five hours after surgery, the rats were given either LXA4 (40 μg/kg rat; i.p.) or saline vehicle. This concentration of LXA4 was derived from published in vivo work in rodents (Bannenberg et al., (2004) Br. J. Pharmacol. 143:43-52). At the end of 48 hours, rats were anesthetized with pentobarbital (50 mg/kg, i.p.). A midline incision was made and the peritoneal cavity was lavaged with 20 ml of PBS containing 0.38% Na citrate (as anticoagulant).
Two hundred μl of lavage fluid was taken immediately for measurement of bacterial load. The rest of the fluid was passed through a […] (diameter) nylon mesh to remove debris and then centrifuged at 110×g for 7 minutes at 4° C. The supernatant was removed and stored at −80° C. for further analyses. Forty ml red blood cell lysis buffer was added to the cell pellet for 10 minutes with gentle inversion before being centrifuged again at 110×g (7 minutes; 4° C.). Cells were resuspended in 1 ml PBS.
Peritoneal Cell Differential. Peritoneal cells were counted using an automated hemocytometer (Beckman Coulter Counter; Z4) and then cytospun onto superfrost ++ slides. In order to perform cell differentials, DIFQUIK staining was performed according to manufacturer's instructions. […]

IL-6 = test: Plasma IL-6 level after CLP; format: in vivo, male Sprague-Dawley rats; conditions: 40 μg/kg i.p. 5 h after CLP; 48 hours after CLP; vs saline vehicle
Protocol: as §2, with “A midline incision was made and the peritoneal cavity was lavaged with 20 ml of PBS containing 0.38% Na citrate (as anticoagulant).” left out
(§3) Plasma IL-6, MCP-1 and IL-10 Levels. Plasma IL-6, MCP-1 and IL-10 levels were measured using commercially available kits. […]

MCP-1 = test: Plasma MCP-1 level after CLP; format: in vivo, male Sprague-Dawley rats; conditions: 40 μg/kg i.p. 5 h after CLP; 48 hours after CLP; vs saline vehicle
Protocol: as §1, with “vehicle. This concentration of LXA4 was derived from published in vivo work in rodents (Bannenberg et al., (2004) Br. J. Pharmacol. 143:43-52).” for “vehicle.”
Plasma IL-6, MCP-1 and IL-10 Levels. Plasma IL-6, MCP-1 and IL-10 levels were measured using commercially available kits.
Plasma MCP-1. […] Accordingly, plasma MCP-1 was measured as another marker of systemic inflammatory response. […]

IL-10 = test: Plasma IL-10 level after CLP; format: in vivo, male Sprague-Dawley rats; conditions: 40 μg/kg i.p. 5 h after CLP; 48 hours after CLP; vs saline vehicle
Protocol: as §2, with “A midline incision was made and the peritoneal cavity was lavaged with 20 ml of PBS containing 0.38% Na citrate (as anticoagulant).” left out
as §3

CLP rats [4] = test: Survival after CLP-induced sepsis, intravenous LXA4; format: in vivo; conditions: 8 μg/kg i.v., single dose 1 hour after CLP; monitored every 24 hours for 8 days
Protocol: as §1, with “vehicle. This concentration of LXA4 was derived from published in vivo work in rodents (Bannenberg et al., (2004) Br. J. Pharmacol. 143:43-52).” for “vehicle.”
To further examine the use of LXA4 in the treatment of sepsis, the effect intravenous LXA4 administration on survival after CLP-induced sepsis was examined. […] Survival was monitored every 24 hours for 8 days (FIG. 7).

CCCCC[C@H](O)/C=C/C=C\C=C\C=C\[C@@H](O)[C@@H](O)CCCC(=O)O [LXA4, 5S,6R,15S-trihydroxy-7E,9E,11Z,13E-Eicosatetraenoic acid]
survival (Kaplan-Meier, log-rank test) (CLP rats [1]): significantly increased survival; also recorded: increased survival rate | bacterial load in the peritoneal cavity (CFU) [2]: reduced bacterial load in the peritoneal cavity but the reduction did not reach significance | blood bacterial load (CFU) [2]: reduces blood bacterial load; also recorded: substantially reduced blood bacterial load | number of monocytes/macrophages in the peritoneal cavity [3]: increased the number of monocytes/macrophages | number of neutrophils in the peritoneal cavity [3]: without affecting the number of neutrophils; also recorded: number of neutrophils remained similar in both groups | total number of peritoneal cells (leukocytes) [3]: increased the total number of peritoneal cells; also recorded: increased peritoneal leukocytes further | plasma IL-6 levels (IL-6): reduced plasma levels of IL-6 | plasma MCP-1 levels (MCP-1): reduced plasma levels of MCP-1; also recorded: significantly reduced plasma MCP-1 levels | plasma IL-10 levels (IL-10): significantly decreased plasma IL-10 levels | survival (Kaplan-Meier, log rank test) (CLP rats [4]): significantly increased survival
